Experimental data as given in patent US8242240B2, “Anti-inflammatory compounds and uses thereof” (Yale University, priority 2000, dated 2012).
Values joined by “and” are separate entries in the source; they are usually repeats but may differ in a detail not shown here. Equal entries are not always repeated. [ ]: non-standard residue; d: D form.

What was measured:
NEMO = molecular target: T1, NEMO (Homo sapiens, UniProt Q9Y6K9); assay: GST pull-down of IKKβ NBD mutants by GST-NEMO; type: binding; details: GST pulldown assay; NBD mutations in IKKβ
T1 construct: bacterially expressed version of full length NEMO fused at its NH2-terminus to glutathione S-transferase; made in house; host or cells: bacteria (pGEX-4T1)
Description: To identify the NEMO-interacting domain of IKKβ we performed in vitro pull down assays (Zhong et al., (1997) Cell 89, 413-424) using a bacterially expressed version of full length NEMO fused at its NH2-terminus to glutathione S-transferase (GST-NEMO; FIG. 1A). Various truncation mutants lacking different functional domains of IKKβ (catalytic domain, leucine zipper and helix-loop-helix; FIG. 1A) were constructed.
These mutants were labeled by in vitro translation with [^35S]-methionine (input; FIG. 1B), mixed with either GST alone or GST-NEMO, and precipitated using glutathione-agarose. […]
Further mutations in the NBD were analyzed (see Table 1) for their ability to affect NEMO binding to IKKβ using the GST pulldown assay explained in Example 3.

[1] = test system: mice (lethal Salmonella typhimurium LPS challenge); assay: Lethal lipopolysaccharide mouse model; type: in vivo, male C57BL/6 mice
Experimental: In this experiment, the ability of anti-inflammatory compounds of the invention to rescue mice challenged with a lethal amount of lipopolysaccharide (LPS) was assessed. LPS is a bacterial product that induces many of the responses that are seen in septic patients, including death. In this model, Salmonella typhimurium LPS in phosphate-buffered […] (PBS) was administered to male C57BL/6 mice by intravenous injection at a dose of 30 mg/kg (600 μg/20 g mouse). This dose was established in control experiments to be lethal in 100% of the mice that received it. Mice were treated with the test peptide by intravenous injection (in 1% dimethyl sulfoxide in PBS) immediately prior to the LPS injection and 24 hours after the LPS injection. Mice were monitored twice daily for up to 8 days after receiving LPS and the duration of survival and the number of surviving mice were recorded.

[2] = test system: mice (PMA-induced ear edema); assay: PMA-induced ear edema in mice; type: in vivo; details: topical 40 μg/ear, 30 min before and after PMA 5 μg/ear, 6 h
Experimental: The NBD peptide was tested for its ability to inhibit inflammatory responses in animals using two distinct models of acute inflammation. In the first model, ear edema was induced in mice using phorbol-12-myristate-13-acetate (PMA) and the effects of topical administration of the NBD peptides were measured. Ear edema using PMA was induced in replicate groups of age and sex matched mice as previously described (Chang et al., (1987) Eur. J. Pharmacol. 142, 197-205). Twenty μl of either NBD peptides (200 μg/ear), dexamethasone (40 μg/ear) or vehicle (DMSO:Ethanol; 25:75 v/v) was applied topically to the right ear of mice thirty minutes before and thirty minutes after the application of 20 μl of PMA (5 μg/ear) dissolved in ethanol. Ear swelling was measured six hours after PMA application using a microgauge and expressed as the mean difference in thickness between the treated (right) and untreated (left) ears. Statistical analysis of the data was performed using the students t-test. A value of p<0.05 was considered statistically significant.

[3] = test system: mice (zymosan-induced peritonitis); assay: Zymosan-induced peritonitis in mice; type: in vivo, mice (C57BL/6NCR); details: dexamethasone 100 mg/ml i.p. with zymosan
Experimental: In a second model, peritonitis was induced in mice by intraperitoneal (i.p.) injection of zymosan either alone or in combination with dexamethasone or the NBD peptides. For zymosan-induced peritonitis, measurement of peritoneal exudates and inflammatory cell collections from replicate groups of age and sex matched mice (C57BL/6NCR) were performed as previously described (Getting et al., (1998) Immunology 95, 625-630). Groups of animals were injected concomitantly with one ml zymosan (1 mg/ml) and either dexamethasone (100 mg/ml) or the NBD peptides (200 mg/ml). The concentration of NOX (nitrate plus nitrite) present in the inflammatory exudates was measured using a colorimetric assay kit (Alexis Corporation) according to the manufacturers protocol.

[4] = test system: mice (Concanavalin A-induced hepatitis); assay: Concanavalin A-induced hepatitis in mice; type: in vivo, male C57BL/6 mice; details: for ALT / AST: serum 18-24 h, mean±SEM
Experimental: Forty male C57BL/6 mice weighing between 18 g and 22 g were divided into five treatment groups of eight mice each as shown below.
The mice were placed in a restrainer and injected intravenously (i.v.) in the tail with a test peptide or vehicle in 1% DMSO in PBS. The mice were then immediately injected i.v. with 15 mg/kg of concanavalin A dissolved in sterile PBS. The injection volume was 5 ml/kg (100 μI/20 g mouse) with a concanavalin A concentration of 3.0 mg/ml. The next morning (18-24 hours later), these mice were euthanized by CO2 inhalation and blood was collected by cardiac puncture. The serum was then separated and analyzed for AST and ALT.
ALT and AST values are given as Sigma-Frankel units/ml, mean±SEM.

[5] = dose 1 mg/kg i.v., number dosed 8, LPS 30 mg/kg i.v.
[6] = dose 5 mg/kg i.v., number dosed 8, LPS 30 mg/kg i.v.
[7] = concanavalin A 15 mg/kg i.v. + 0.5 mg/kg i.v.
[8] = concanavalin A 15 mg/kg i.v. + 1 mg/kg i.v.
[9] = concanavalin A 15 mg/kg i.v. + 5 mg/kg i.v.
[10] = dose 5 mg/kg i.v., number dosed 7, LPS 30 mg/kg i.v.

T1 sequence (Q9Y6K9 whole entry, the tested form may be a part): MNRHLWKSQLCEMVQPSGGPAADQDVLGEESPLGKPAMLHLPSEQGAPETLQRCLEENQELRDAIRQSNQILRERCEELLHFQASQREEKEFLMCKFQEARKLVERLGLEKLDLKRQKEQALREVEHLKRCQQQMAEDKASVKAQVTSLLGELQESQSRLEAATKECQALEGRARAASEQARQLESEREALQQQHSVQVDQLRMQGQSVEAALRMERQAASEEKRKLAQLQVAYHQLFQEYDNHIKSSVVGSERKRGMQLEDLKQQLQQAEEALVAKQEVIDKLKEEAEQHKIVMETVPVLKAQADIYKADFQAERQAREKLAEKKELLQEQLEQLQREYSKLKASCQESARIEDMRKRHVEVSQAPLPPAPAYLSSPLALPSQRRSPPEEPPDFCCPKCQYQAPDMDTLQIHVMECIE

Row | Binds to NEMO (NEMO) | Molecule | survival (day five), number of mice surviving [1, 6] | further results
1 | yes | LDFSWL | – | –
2 | – | H-YARAARRAARRTALDWSWLQTE-NH2 [compound 5] | – | survival (day five), number of mice surviving [1, 5]: 4
3 | no | LDWSYL (Description of Artificial Sequence: Synthetic NBD peptide) | – | –
4 | yes | LDWAWL | – | –
5 | yes | LDWSFL (Description of Artificial Sequence: Synthetic NBD peptide) | – | –
6 | no | LDASWL (Description of Artificial Sequence: Synthetic NBD peptide) | – | –
7 | yes | LDYSWL (Description of Artificial Sequence: Synthetic NBD peptide) | – | –
8 | – | C[C@@H]1C[C@H]2[C@@H]3CCC4=CC(=O)C=C[C@]4(C)[C@@]3(F)[C@@H](O)C[C@]2(C)[C@@]1(O)C(=O)CO [dexamethasone] | – | inhibition of PMA-induced ear thickening [2]: 82%; reduction of NOX in peritoneal exudates [3]: 86±7%
9 | yes | LDWSWL (Description of Artificial Sequence: Synthetic NBD peptide) | – | –
10 | yes | ADWSWL | – | –
11 | no | LDWSAL (Description of Artificial Sequence: Synthetic NBD peptide) | – | –
12 | – | H-YARAARRAARRLDWSWL-NH2 [compound 9] | 6 and 8 | survival (day five), number of mice surviving [1, 5]: 0
13 | – | H-YARKARRQARRTALDWSWLQTE-NH2 [compound 4] | 0 | –
14 | – | H-yaraarraarrLDWSWL-NH2 (H-[dY][dA][dR][dA][dA][dR][dR][dA][dA][dR][dR]LDWSWL-NH2; SMILES CC(C)C[C@H](NC(=O)[C@H](Cc1c[nH]c2ccccc12)NC(=O)[C@H](CO)NC(=O)[C@H](Cc1c[nH]c2ccccc12)NC(=O)[C@H](CC(=O)O)NC(=O)[C@H](CC(C)C)NC(=O)[C@@H](CCCNC(=N)N)NC(=O)[C@@H](CCCNC(=N)N)NC(=O)[C@@H](C)NC(=O)[C@@H](C)NC(=O)[C@@H](CCCNC(=N)N)NC(=O)[C@@H](CCCNC(=N)N)NC(=O)[C@@H](C)NC(=O)[C@@H](C)NC(=O)[C@@H](CCCNC(=N)N)NC(=O)[C@@H](C)NC(=O)[C@H](N)Cc1ccc(O)cc1)C(N)=O) [compound 10] | 8 and 6 | survival (day five), number of mice surviving [1, 5]: 5; liver injury by concanavalin A, gross pathology ([4]; 5 mg/kg): prevented; protection against concanavalin A-induced liver damage ([4]; 5 mg/kg): able to protect; ALT [4, 7]: 1919 ± 234 Sigma-Frankel units/ml; AST [4, 7]: 1217 ± 192 Sigma-Frankel units/ml; ALT [4, 8]: 1910 ± 281 Sigma-Frankel units/ml; AST [4, 8]: 1264 ± 270 Sigma-Frankel units/ml; ALT [4, 9]: 72 ± 19 Sigma-Frankel units/ml; AST [4, 9]: 99 ± 14 Sigma-Frankel units/ml
15 | yes | LDWEWL (Description of Artificial Sequence: Synthetic NBD peptide) | – | –
16 | yes | LNWSWL (Description of Artificial Sequence: Synthetic NBD peptide) | – | –
17 | no | LAWSWL (Description of Artificial Sequence: Synthetic NBD peptide) | – | –
18 | no | LDASAL (Description of Artificial Sequence: Synthetic NBD peptide) | – | –
19 | – | H-RRMKWKKTALDWSWLQTE-NH2 [compound 1] | – | survival (day five), number of mice surviving [1, 10]: 1
20 | – | H-YGRKKRRQRRRTALDWSWLQTE-NH2 [compound 2] | 4 | survival (day five), number of mice surviving [1, 10]: 7
21 | – | H-RRMKWKKLDWSWL-NH2 [compound 6] | 7 and 5 and 4 and 8 | survival (day five), number of mice surviving [1, 5]: 0
22 | yes | LEWSWL (Description of Artificial Sequence: Synthetic NBD peptide) | – | –
23 | yes | LDWSWA (Description of Artificial Sequence: Synthetic NBD peptide) | – | –
24 | – | H-rrrrrrrLDWSWL-NH2 (H-[dR][dR][dR][dR][dR][dR][dR]LDWSWL-NH2; SMILES CC(C)C[C@H](NC(=O)[C@H](Cc1c[nH]c2ccccc12)NC(=O)[C@H](CO)NC(=O)[C@H](Cc1c[nH]c2ccccc12)NC(=O)[C@H](CC(=O)O)NC(=O)[C@H](CC(C)C)NC(=O)[C@@H](CCCNC(=N)N)NC(=O)[C@@H](CCCNC(=N)N)NC(=O)[C@@H](CCCNC(=N)N)NC(=O)[C@@H](CCCNC(=N)N)NC(=O)[C@@H](CCCNC(=N)N)NC(=O)[C@@H](CCCNC(=N)N)NC(=O)[C@H](N)CCCNC(=N)N)C(N)=O) [compound 8] | 7 and 8 | survival (day five), number of mice surviving [1, 5]: 0
25 | – | H-YGRKKRRQRRRLDWSWL-NH2 [compound 11] | 6 | –
26 | – | H-rrmkwkkLDWSWL-NH2 (H-[dR][dR][dM][dK][dW][dK][dK]LDWSWL-NH2; SMILES CSCC[C@@H](NC(=O)[C@@H](CCCNC(=N)N)NC(=O)[C@H](N)CCCNC(=N)N)C(=O)N[C@H](CCCCN)C(=O)N[C@H](Cc1c[nH]c2ccccc12)C(=O)N[C@H](CCCCN)C(=O)N[C@H](CCCCN)C(=O)N[C@@H](CC(C)C)C(=O)N[C@@H](CC(=O)O)C(=O)N[C@@H](Cc1c[nH]c2ccccc12)C(=O)N[C@@H](CO)C(=O)N[C@@H](Cc1c[nH]c2ccccc12)C(=O)N[C@@H](CC(C)C)C(N)=O) [compound 7] | 8 | –
27 | – | H-rrrrrrrTALDWSWLQTE-NH2 (H-[dR][dR][dR][dR][dR][dR][dR]TALDWSWLQTE-NH2; SMILES CC(C)C[C@H](NC(=O)[C@H](C)NC(=O)[C@@H](NC(=O)[C@@H](CCCNC(=N)N)NC(=O)[C@@H](CCCNC(=N)N)NC(=O)[C@@H](CCCNC(=N)N)NC(=O)[C@@H](CCCNC(=N)N)NC(=O)[C@@H](CCCNC(=N)N)NC(=O)[C@@H](CCCNC(=N)N)NC(=O)[C@H](N)CCCNC(=N)N)[C@@H](C)O)C(=O)N[C@@H](CC(=O)O)C(=O)N[C@@H](Cc1c[nH]c2ccccc12)C(=O)N[C@@H](CO)C(=O)N[C@@H](Cc1c[nH]c2ccccc12)C(=O)N[C@@H](CC(C)C)C(=O)N[C@@H](CCC(N)=O)C(=O)N[C@H](C(=O)N[C@@H](CCC(=O)O)C(N)=O)[C@@H](C)O) [compound 3] | 5 and 8 | survival (day five), number of mice surviving [1, 10]: 7
